{
  "source": "paper PMC6688997",
  "about": "(Nature Communications, 2019)",
  "key": {"[1]": {"test_system": "Ba/F3-CD74-ROS1 G2032R cells", "assay": "CellTiter-Glo cell viability assay", "format": "cell-based, murine", "settings": "for IC50: 72 h"}, "[2]": {"test_system": "Ba/F3-CD74-ROS1 S1986F cells", "assay": "CellTiter-Glo cell viability assay", "format": "cell-based, murine", "settings": "72 h"}, "[3]": {"target": "T1, phospho-ROS1 in CD74-ROS1-expressing Ba/F3 cells (Homo sapiens, UniProt P04233+P08922)", "T1 construct": "CD74 (N-terminal fusion partner, human CD74 P04233); expressed in transfected cells; host or cells: Ba/F3 (murine pro-B cells), retroviral infection", "assay": "Immunoblot of ROS1 autophosphorylation", "format": "cell-based, murine", "settings": "2 h"}, "[4]": {"target": "T2, phospho-ROS1 in SLC34A2-ROS1 harboring HCC78 cells (Homo sapiens, UniProt O95436+P08922)", "T2 construct": "SLC34A2 (N-terminal fusion partner, human SLC34A2 O95436); endogenous in cells; host or cells: HCC78", "assay": "Immunoblot of ROS1 autophosphorylation", "format": "cell-based", "settings": "2 h"}, "LYNb": {"target": "T3, LYNb (Homo sapiens, UniProt P07948)", "T3 construct": "purchased Carna Biosciences", "assay": "Kinase assay, ATP Km", "format": "biochemical"}, "FES": {"target": "FES (Homo sapiens, UniProt P07332)", "sequence (P07332 whole entry)": "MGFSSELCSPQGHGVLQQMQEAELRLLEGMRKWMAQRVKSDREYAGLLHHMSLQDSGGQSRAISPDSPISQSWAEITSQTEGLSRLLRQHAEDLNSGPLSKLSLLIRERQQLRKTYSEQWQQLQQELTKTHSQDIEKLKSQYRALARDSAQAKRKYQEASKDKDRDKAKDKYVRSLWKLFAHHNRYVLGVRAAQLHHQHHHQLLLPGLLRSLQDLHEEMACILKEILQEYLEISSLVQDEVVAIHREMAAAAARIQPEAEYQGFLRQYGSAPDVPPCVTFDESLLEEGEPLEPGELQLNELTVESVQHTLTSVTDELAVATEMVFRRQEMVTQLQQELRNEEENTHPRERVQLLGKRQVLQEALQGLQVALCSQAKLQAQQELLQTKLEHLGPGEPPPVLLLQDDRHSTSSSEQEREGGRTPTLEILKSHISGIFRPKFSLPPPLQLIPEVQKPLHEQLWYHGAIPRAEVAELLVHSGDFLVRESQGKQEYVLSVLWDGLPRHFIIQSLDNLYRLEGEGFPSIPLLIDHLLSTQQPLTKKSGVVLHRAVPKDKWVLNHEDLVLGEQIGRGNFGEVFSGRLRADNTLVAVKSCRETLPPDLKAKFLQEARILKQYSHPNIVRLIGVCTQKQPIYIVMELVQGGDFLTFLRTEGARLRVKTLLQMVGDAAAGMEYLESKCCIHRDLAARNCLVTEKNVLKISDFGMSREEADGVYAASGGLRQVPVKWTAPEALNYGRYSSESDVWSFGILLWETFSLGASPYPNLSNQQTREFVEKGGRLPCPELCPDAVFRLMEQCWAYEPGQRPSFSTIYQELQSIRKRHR", "assay": "Kinase assay, ATP Km", "format": "biochemical"}, "EPHA4": {"target": "T4, EPHA4 (Homo sapiens, UniProt P54764)", "T4 construct": "purchased Carna Biosciences", "T4 sequence (P54764 20-986)": "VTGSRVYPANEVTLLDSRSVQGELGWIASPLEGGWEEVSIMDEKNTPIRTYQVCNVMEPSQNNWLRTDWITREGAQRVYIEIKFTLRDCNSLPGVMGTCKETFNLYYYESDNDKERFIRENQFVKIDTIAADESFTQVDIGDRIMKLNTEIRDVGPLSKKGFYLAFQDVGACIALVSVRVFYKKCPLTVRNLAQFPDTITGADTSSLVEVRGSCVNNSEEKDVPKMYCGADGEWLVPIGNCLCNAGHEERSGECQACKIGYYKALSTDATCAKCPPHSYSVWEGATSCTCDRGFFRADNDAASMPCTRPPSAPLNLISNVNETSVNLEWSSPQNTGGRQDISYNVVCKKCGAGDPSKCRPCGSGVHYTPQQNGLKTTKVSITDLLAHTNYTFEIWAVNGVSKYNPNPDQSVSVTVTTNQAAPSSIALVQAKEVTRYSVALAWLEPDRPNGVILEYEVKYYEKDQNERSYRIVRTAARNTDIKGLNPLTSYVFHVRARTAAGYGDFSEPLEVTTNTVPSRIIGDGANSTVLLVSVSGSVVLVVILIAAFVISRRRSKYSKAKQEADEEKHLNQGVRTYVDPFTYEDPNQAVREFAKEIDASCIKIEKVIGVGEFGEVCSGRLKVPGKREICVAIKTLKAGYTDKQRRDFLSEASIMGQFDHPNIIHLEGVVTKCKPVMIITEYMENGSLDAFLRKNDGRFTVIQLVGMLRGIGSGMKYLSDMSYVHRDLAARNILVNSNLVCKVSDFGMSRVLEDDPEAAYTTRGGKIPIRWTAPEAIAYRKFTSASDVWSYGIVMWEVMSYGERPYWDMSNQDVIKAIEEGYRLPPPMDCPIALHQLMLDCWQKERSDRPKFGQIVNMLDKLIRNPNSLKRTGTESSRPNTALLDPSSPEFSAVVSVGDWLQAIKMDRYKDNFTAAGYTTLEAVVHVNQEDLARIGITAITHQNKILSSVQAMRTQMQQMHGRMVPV", "assay": "Kinase assay, ATP Km", "format": "biochemical"}, "ABL": {"target": "ABL (Homo sapiens, UniProt P00519)", "assay": "Kinase assay, ATP Km", "format": "biochemical"}, "QIK": {"target": "QIK (Homo sapiens, UniProt Q9H0K1)", "assay": "Kinase assay, ATP Km", "format": "biochemical"}, "IRAK1": {"target": "IRAK1 (Homo sapiens, UniProt P51617)", "sequence (P51617 whole entry)": "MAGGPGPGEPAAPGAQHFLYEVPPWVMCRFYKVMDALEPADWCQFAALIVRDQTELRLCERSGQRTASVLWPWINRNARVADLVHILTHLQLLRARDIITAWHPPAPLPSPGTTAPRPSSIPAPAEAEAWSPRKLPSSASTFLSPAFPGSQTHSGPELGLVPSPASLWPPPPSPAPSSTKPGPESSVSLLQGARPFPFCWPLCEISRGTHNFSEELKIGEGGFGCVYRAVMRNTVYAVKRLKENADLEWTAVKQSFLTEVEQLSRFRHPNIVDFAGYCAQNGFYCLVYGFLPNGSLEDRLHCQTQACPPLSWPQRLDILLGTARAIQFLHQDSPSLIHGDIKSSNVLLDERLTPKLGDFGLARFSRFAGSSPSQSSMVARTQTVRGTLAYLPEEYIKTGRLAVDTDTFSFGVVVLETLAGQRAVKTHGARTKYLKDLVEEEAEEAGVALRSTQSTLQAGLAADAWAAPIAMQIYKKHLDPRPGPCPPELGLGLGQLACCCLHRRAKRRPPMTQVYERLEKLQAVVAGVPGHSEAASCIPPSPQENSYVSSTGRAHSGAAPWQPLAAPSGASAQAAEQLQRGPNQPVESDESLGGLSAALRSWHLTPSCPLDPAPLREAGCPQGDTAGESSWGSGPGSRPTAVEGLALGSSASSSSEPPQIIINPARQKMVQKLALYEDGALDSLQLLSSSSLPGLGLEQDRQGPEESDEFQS", "assay": "Kinase assay, ATP Km", "format": "biochemical"}, "PKCβ2": {"target": "PKCβ2 (Homo sapiens, UniProt P05771)", "sequence (P05771 1-673 isoform P05771-2)": "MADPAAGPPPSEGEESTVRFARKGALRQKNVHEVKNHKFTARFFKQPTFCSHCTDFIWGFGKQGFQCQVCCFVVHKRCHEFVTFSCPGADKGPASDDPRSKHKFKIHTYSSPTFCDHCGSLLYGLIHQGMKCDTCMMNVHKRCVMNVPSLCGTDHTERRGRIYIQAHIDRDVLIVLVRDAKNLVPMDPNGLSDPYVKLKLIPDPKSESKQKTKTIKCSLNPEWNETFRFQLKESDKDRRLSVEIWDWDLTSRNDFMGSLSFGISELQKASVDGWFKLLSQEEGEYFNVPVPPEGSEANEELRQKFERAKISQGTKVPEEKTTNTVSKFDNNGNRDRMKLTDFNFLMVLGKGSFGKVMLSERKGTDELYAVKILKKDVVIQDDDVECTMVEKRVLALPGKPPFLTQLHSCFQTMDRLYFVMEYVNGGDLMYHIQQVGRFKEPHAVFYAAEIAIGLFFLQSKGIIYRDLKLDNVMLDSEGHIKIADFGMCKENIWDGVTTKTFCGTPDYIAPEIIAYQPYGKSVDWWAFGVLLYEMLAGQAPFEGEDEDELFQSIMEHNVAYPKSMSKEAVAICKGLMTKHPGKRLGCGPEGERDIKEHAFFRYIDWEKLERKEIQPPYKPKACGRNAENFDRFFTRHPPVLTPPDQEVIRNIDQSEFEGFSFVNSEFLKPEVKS", "assay": "Kinase assay, ATP Km", "format": "biochemical"}, "TNIK": {"target": "T5, TNIK (Homo sapiens, UniProt Q9UKE5)", "T5 construct": "purchased Carna Biosciences", "T5 sequence (Q9UKE5 whole entry)": "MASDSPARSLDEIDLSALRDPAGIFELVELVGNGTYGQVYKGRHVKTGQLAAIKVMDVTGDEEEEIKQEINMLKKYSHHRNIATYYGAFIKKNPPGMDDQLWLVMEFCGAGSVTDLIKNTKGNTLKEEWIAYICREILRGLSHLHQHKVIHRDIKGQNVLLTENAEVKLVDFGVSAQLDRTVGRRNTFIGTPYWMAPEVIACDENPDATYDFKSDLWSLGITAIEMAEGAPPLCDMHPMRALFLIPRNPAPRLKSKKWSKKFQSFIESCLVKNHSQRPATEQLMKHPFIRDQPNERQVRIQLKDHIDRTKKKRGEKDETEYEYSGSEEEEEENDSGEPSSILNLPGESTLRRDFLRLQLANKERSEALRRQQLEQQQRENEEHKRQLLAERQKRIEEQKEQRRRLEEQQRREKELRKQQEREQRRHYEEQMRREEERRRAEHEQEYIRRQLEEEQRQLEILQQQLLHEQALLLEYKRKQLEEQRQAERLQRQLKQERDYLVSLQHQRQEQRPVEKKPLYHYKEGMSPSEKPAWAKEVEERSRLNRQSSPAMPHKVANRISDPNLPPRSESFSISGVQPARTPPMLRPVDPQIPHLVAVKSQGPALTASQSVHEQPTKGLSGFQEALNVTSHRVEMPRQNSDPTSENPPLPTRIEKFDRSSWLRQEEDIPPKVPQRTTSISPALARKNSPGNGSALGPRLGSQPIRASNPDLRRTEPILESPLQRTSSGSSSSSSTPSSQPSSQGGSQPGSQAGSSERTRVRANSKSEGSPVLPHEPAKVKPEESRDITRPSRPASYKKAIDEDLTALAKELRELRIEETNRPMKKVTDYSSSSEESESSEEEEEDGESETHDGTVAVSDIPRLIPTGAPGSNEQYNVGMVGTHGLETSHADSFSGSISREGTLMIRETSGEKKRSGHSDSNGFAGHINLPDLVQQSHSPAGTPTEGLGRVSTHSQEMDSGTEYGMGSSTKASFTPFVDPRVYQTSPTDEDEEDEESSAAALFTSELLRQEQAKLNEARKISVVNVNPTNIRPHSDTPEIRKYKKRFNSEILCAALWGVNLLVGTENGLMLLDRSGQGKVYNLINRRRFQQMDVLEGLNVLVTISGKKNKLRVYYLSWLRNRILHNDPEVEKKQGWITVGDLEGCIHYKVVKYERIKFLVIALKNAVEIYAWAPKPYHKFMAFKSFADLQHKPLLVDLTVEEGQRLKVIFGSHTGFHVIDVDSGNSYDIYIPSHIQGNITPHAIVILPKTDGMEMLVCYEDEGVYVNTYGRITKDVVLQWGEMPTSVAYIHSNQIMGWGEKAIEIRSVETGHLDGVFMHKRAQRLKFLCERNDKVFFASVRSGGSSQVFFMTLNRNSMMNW", "assay": "Kinase assay, ATP Km", "format": "biochemical"}, "NEK1": {"target": "T6, NEK1 (Homo sapiens, UniProt Q96PY6)", "T6 construct": "purchased Carna Biosciences", "assay": "Kinase assay, ATP Km", "format": "biochemical"}, "p38δ": {"target": "p38δ (Homo sapiens, UniProt O15264)", "assay": "Kinase assay, ATP Km", "format": "biochemical"}, "PAK1": {"target": "PAK1 (Homo sapiens, UniProt Q13153)", "assay": "Kinase assay, ATP Km", "format": "biochemical"}, "CLK1": {"target": "CLK1 (Homo sapiens, UniProt P49759)", "sequence (P49759 whole entry)": "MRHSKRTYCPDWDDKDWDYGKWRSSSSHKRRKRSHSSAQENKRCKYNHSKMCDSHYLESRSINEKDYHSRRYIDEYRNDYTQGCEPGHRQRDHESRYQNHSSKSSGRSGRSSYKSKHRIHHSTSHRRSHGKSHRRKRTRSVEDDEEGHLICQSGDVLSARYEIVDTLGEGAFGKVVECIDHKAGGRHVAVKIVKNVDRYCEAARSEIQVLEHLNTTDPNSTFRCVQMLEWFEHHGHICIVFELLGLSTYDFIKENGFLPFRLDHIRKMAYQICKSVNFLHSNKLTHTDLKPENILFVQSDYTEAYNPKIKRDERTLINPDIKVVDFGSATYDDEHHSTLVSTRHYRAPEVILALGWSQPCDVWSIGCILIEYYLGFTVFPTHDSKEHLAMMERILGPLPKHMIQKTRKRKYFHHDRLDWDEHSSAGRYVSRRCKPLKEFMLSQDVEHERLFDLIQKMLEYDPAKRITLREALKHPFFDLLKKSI", "assay": "Kinase assay, ATP Km", "format": "biochemical"}, "SYK": {"target": "SYK (Homo sapiens, UniProt P43405)", "assay": "Kinase assay, ATP Km", "format": "biochemical"}, "PLK3": {"target": "T7, PLK3 (Homo sapiens, UniProt Q9H4B4)", "T7 construct": "purchased Carna Biosciences", "assay": "Kinase assay, ATP Km", "format": "biochemical"}, "AKT3": {"target": "AKT3 (Homo sapiens, UniProt Q9Y243)", "assay": "Kinase assay, ATP Km", "format": "biochemical"}, "PKACβ": {"target": "PKACβ (Homo sapiens, UniProt P22694)", "assay": "Kinase assay, ATP Km", "format": "biochemical"}, "MUSK": {"target": "T8, MUSK (Homo sapiens, UniProt O15146)", "T8 construct": "purchased Carna Biosciences", "T8 sequence (O15146 24-869)": "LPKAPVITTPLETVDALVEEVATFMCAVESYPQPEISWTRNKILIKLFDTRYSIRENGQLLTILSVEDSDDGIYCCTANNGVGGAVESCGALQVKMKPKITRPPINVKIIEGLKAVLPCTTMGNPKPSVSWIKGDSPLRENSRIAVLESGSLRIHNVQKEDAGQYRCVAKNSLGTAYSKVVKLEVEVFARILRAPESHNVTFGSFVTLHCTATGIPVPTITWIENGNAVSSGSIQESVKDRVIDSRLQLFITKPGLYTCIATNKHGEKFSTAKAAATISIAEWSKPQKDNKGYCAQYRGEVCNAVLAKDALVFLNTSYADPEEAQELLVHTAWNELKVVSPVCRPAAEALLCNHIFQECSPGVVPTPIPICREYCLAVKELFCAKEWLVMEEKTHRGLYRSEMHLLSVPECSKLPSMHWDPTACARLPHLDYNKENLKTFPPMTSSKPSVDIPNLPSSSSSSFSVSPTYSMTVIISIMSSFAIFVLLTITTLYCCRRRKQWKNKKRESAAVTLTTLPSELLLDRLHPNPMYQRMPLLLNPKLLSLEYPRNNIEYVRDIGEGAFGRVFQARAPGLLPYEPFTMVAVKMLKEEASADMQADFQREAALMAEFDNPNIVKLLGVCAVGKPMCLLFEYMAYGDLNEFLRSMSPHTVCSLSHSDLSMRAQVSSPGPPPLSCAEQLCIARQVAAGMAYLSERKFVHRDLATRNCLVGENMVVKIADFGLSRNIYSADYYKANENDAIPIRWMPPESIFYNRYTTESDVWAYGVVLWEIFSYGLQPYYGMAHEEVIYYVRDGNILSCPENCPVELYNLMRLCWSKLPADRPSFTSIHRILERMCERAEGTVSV", "assay": "Kinase assay, 1 mM ATP", "format": "biochemical"}},
  "note": "“Also recorded” adds a separate entry of the source. Like-named read-outs stand apart in the source and are kept apart here.",
  "data": [
    {"molecule": "C[C@@H](N)COc1ccc(-c2cnc3ccc(N[C@H](C)c4cccc(F)c4)nn23)cc1.O=C(O)CCCCC(=O)O", "note": "[DS-6051b]", "values": [
      {"measurement": "IC50", "setting": "[1]", "value": "[…]"},
      {"measurement": "IC50", "setting": "[1]; Mus musculus, read-out: IC50", "value": "[…]"},
      {"measurement": "GI50", "setting": "[1]; Mus musculus, source data sheet", "value": "[…]"},
      {"measurement": "IC50", "setting": "[2]", "value": "effectively inhibited the growth; also recorded: single-digit nanomolar"},
      {"measurement": "Inhibition of autophosphorylation of ROS1", "setting": "[3]", "value": "single-digit to double-digit nanomolar"},
      {"measurement": "Inhibition of autophosphorylation of ROS1", "setting": "[4]", "value": "single-digit to double-digit nanomolar"},
      {"measurement": "inhibition at 0.04 µM", "setting": "LYNb", "value": 52.5, "unit": "%"},
      {"measurement": "inhibition at 0.04 µM", "setting": "FES", "value": 41.2, "unit": "%"},
      {"measurement": "inhibition at 0.04 µM", "setting": "EPHA4", "value": 32.9, "unit": "%"},
      {"measurement": "inhibition at 0.04 µM", "setting": "ABL", "value": 29.1, "unit": "%"},
      {"measurement": "inhibition at 0.04 µM", "setting": "QIK", "value": 20.2, "unit": "%"},
      {"measurement": "inhibition at 0.04 µM", "setting": "IRAK1", "value": 19.3, "unit": "%"},
      {"measurement": "inhibition at 0.04 µM", "setting": "PKCβ2", "value": 19.1, "unit": "%"},
      {"measurement": "inhibition at 0.04 µM", "setting": "TNIK", "value": 16.4, "unit": "%"},
      {"measurement": "inhibition at 0.04 µM", "setting": "NEK1", "value": 7.2, "unit": "%"},
      {"measurement": "inhibition at 0.04 µM", "setting": "p38δ", "value": 6.2, "unit": "%"},
      {"measurement": "inhibition at 0.04 µM", "setting": "PAK1", "value": 1.2, "unit": "%"},
      {"measurement": "inhibition at 0.04 µM", "setting": "CLK1", "value": 1.1, "unit": "%"},
      {"measurement": "inhibition at 0.04 µM", "setting": "SYK", "value": 0.327, "unit": "%"},
      {"measurement": "inhibition at 0.04 µM", "setting": "PLK3", "value": 0.177, "unit": "%"},
      {"measurement": "inhibition at 0.04 µM", "setting": "AKT3", "value": -0.9, "unit": "%"},
      {"measurement": "inhibition at 0.04 µM", "setting": "PKACβ", "value": -3, "unit": "%"},
      {"measurement": "inhibition at 0.2 µM", "setting": "MUSK", "value": 33.6, "unit": "%"}
    ]}
  ]
}
